Values quoted from earlier work in US9321030B2, “Clay-containing thin films as carriers of absorbed molecules” (priority 2012, dated 2016).

Columns and labels:
[1] = tested on: multi-drug resistant strains of gram-positive and gram-negative bacteria; conditions: clinically relevant multi-drug resistant strains
[2] = tested on: Pseudomonas aeruginosa biofilms
[3] = tested on: Mycobacterium tuberculosis
S. aureus ATCC 12600 = conditions: known value

Substance | efficacy against planktonic cells [1] | activity against biofilms [2] | activity [3] | minimum inhibitory concentration (S. aureus ATCC 12600)
H—(NLys-Nspe-Nspe)4-NH2 [Peptoid 1] | demonstrated efficacy | active | active | 
gentamicin |  |  |  | 1 µg/mL
